Laboratory results from US7598245B2 (Vertex Pharmaceuticals Incorporated, priority 2003, dated 2009).

Key:
Type in all cases: biochemical
c-KIT = molecular target: T1, c-KIT (Homo sapiens, UniProt P10721); assay: Inhibition of c-KIT, radiometric filter-binding assay; details: 700 μM ATP, pE4Y substrate
T1 construct: 0.02% BSA and 25 nM c-KIT
Method: Compounds are screened for their ability to inhibit c-KIT activity using a radiometric filter-binding assay. This assay monitors the ^33P incorporation into a substrate poly(Glu, Tyr) 4:1 (pE4Y). Reactions are carried out in a solution containing 100 mM HEPES (pH 7.5), 10 mM MgCl2, 25 mM NaCl, 1 mM DTT, 0.01% BSA and 2.5% DMSO. Final substrate concentrations in the assay were 700 μM ATP and 0.5 mg/mL pE4Y (both from Sigma Chemicals, St Louis, Mo.). The final concentration of compounds is generally between 0.01 and 5 μM. Typically, a 12-point titration is conducted by preparing serial dilutions from 10 mM DMSO stock of test compound. Reactions were carried out at room temperature.
Two assay solutions are prepared. Solution 1 contains 100 mM HEPES (pH 7.5), 10 mM MgCl2, 25 mM NaCl, 1 mg/ml pE4Y and 1.4 mM ATP (containing 0.5 μCi of [γ-^33P]ATP for each reaction). Solution 2 contains 100 mM HEPES (pH 7.5), 10 mM MgCl2, 25 mM NaCl, 2 mM DTT, 0.02% BSA and 25 nM c-KIT. The assay is run on a 96 well plate by mixing 33 μL of Solution1 and 1.65 μL of the test compounds. The reaction is initiated with 33 μL of Solution2. After incubation for 20 minutes at room temperature, the reaction was stopped with 50 μL of 10% TCA containing 0.2 mM of ATP. All of the reaction volume is then transferred to a filter plate and washed with 5% TCA by a Harvester9600 from TOMTEC (Hamden, Conn.). The amount of ^33P incorporation into pE4y is analyzed by a Packard TopCount Microplate Scintillation Counter (Meriden, Conn.). The data is fitted using Prism software to get an IC50 or Ki.

human Src kinase = molecular target: T2, human Src kinase (Homo sapiens, UniProt P12931); assay: Src inhibition assay B: spectrophotometric (uv-vis) coupled enzyme assay; details: 100 μM ATP
T2 construct: 25 nM of recombinant human Src kinase
T2 sequence (P12931 whole entry): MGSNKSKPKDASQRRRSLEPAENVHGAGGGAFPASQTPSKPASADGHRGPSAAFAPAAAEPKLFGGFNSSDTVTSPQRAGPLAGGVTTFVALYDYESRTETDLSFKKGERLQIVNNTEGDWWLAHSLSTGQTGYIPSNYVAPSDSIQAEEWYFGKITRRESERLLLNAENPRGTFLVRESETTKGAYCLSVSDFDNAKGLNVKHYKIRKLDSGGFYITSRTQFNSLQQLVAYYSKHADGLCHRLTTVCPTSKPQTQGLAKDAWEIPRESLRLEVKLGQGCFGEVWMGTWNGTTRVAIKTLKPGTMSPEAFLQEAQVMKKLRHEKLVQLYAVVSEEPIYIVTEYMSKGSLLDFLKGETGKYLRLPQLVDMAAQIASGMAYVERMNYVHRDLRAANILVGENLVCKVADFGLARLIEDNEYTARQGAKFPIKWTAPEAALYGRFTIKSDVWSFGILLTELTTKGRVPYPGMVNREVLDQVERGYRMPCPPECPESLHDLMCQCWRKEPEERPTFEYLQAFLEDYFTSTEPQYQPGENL
Method in brief: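 Recombinant human Src with 0.25 mg/ml poly Glu-Tyr in 0.025 M HEPES pH 7.6, 10 mM MgCl2, 2 mM DTT, 2.5% DMSO; 10 min preincubation at 30° C, started with 100 μM ATP. ADP quantified by pyruvate kinase/LDH coupled NADH oxidation at 340 nm; rates fitted to competitive inhibition model for Ki.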

Aurora-2 = molecular target: T3, Aurora-2 (Homo sapiens, UniProt O14965); assay: Inhibition of AUR-2, coupled enzyme assay
T3 construct: addition of 10 μL of Aurora-2 stock solution to give a final concentration of 70 nM
T3 sequence (O14965 1-403): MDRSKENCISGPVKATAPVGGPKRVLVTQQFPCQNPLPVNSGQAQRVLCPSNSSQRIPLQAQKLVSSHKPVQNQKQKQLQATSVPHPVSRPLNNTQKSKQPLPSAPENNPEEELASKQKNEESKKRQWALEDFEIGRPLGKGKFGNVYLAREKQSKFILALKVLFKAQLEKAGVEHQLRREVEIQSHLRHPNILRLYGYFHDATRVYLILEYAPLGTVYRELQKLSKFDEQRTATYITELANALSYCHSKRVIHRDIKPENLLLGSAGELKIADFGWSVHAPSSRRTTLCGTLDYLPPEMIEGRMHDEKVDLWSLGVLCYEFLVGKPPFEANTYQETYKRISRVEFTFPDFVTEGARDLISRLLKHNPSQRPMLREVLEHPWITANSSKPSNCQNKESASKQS
Method: Compounds are screened in the following manner for their ability to inhibit Aurora-2 using a standard coupled enzyme assay (Fox et al (1998) Protein Sci 7, 2249). To an assay stock buffer solution containing 0.1M HEPES 7.5, 10 mM MgCl2, 1 mM DTT, 25 mM NaCl, 2.5 mM phosphoenolpyruvate, […], 30 mg/ml pyruvate kinase, 10 mg/ml lactate dehydrogenase, 40 mM ATP, and 800 μM peptide (LRRASLG, American Peptide, Sunnyvale, Calif.) is added a DMSO solution of a compound of the present invention to a final concentration of 30 μM. The resulting mixture is incubated at 30° C. for 10 min. The reaction was initiated by the addition of 10 μL of Aurora-2 stock solution to give a final concentration of 70 nM in the assay. The rates of reaction are obtained by monitoring absorbance at 340 nm over a 5 minute read time at 30° C. using a BioRad Ultramark plate reader (Hercules, Calif.). The Ki values are determined from the rate data as a function of inhibitor concentration.

T1 sequence (P10721 26-976): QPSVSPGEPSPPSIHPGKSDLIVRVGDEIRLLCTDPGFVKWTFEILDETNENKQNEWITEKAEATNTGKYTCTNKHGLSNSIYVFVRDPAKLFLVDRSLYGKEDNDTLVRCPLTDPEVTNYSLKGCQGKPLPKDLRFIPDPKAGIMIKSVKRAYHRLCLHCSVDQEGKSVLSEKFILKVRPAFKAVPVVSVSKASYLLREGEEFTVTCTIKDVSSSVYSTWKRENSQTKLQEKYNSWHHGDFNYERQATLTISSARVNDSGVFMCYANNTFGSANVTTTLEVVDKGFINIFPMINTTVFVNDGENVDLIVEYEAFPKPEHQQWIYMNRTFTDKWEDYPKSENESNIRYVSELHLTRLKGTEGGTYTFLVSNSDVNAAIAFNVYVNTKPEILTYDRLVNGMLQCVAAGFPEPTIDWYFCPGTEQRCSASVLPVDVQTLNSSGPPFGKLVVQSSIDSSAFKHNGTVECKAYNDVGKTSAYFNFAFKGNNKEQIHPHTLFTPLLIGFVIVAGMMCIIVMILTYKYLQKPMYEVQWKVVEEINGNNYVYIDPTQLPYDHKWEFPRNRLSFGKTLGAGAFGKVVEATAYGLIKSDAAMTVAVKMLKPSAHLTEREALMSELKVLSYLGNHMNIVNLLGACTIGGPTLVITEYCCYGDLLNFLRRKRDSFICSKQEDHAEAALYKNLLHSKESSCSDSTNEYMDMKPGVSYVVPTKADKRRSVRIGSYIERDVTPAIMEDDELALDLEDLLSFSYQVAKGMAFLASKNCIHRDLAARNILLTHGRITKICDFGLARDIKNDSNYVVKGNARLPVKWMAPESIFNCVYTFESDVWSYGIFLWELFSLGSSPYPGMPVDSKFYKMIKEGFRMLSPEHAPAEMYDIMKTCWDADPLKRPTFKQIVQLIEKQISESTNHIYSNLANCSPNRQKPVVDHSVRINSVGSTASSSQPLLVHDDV

Row | Ki (c-KIT) [nM] | Ki (human Src kinase) [nM] | Ki (Aurora-2) [nM] | SMILES
1 | 50 to 500 | 500 to 1000 | < 100 | CC(=O)N1[C@H](C)CN(c2cc(-n3cnc(Nc4ccc(N5CCOCC5)cc4)n3)ccn2)C[C@@H]1C [Compound I-85, 1-(2,6-Dimethyl-4-{4-[3-(4-morpholin-4-yl-phenylamino)-[1,2,4]triazol-1-yl]-pyridin-2-yl}-piperazin-1-yl)-ethanone]
2 | 50 to 500 | < 500 | < 100 | CCCOC(=O)Nc1ccc(Nc2ncn(-c3ccnc(N4C[C@@H](C)N(C(C)=O)[C@@H](C)C4)c3)n2)cc1 [Compound I-88]
3 | 50 to 500 | 500 to 1000 | < 100 | CC(=O)N1[C@H](C)CN(c2cc(-n3cnc(Nc4ccc(NC(=O)OC(C)C)cc4)n3)ccn2)C[C@@H]1C [Compound I-89]
4 | < 50 | < 500 | 100 to 1000 | c1ccc(-n2cnc(Nc3ccnc(N4CCOCC4)c3)n2)cc1 [Compound I-105]
